Reference: ChEMBL document CHEMBL6103557, “Novel Pyrrolidinone Urea Compounds as FPR2 Agonists for Treating Atherosclerosis and Heart Failure” (ACS Med Chem Lett, 2024)

Molecular target: T1, N-formyl peptide receptor 2 (Homo sapiens, UniProt P25090)
T1 sequence (P25090 whole entry): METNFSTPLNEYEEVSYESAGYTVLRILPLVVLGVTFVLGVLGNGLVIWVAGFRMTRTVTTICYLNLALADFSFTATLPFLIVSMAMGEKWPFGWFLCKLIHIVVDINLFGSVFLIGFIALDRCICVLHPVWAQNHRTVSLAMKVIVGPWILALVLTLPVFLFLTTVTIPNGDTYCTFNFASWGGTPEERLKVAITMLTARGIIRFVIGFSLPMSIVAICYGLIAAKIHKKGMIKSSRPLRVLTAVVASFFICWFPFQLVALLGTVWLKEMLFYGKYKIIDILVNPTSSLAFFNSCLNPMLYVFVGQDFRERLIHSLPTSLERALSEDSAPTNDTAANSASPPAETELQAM
Assay: Agonist activity at human FPR2 expressed in forskolin/IBMX-treated CHO cells incubated for 30 mins by HTRF HiRange cAMP assay
Format: functional, cell-based

Row | SMILES | EC50 [nM]
1 | O=C(Nc1ccc(Cl)cc1F)N[C@@H]1C[C@@H](CO)N(c2ccc(N3CCC(C(F)F)C3)c(F)c2F)C1=O (stereo partly specified) | 0.7
2 | CN(C)[C@H]1CN(c2ccc(N3CC[C@@H](NC(=O)Nc4ccc(Cl)cc4F)C3=O)c(F)c2F)C[C@H]1F | 0.71
3 | O=C(Nc1ccc(Cl)cc1F)N[C@@H]1C[C@@H](CO)N(c2ccc(N3CCC(C(F)(F)F)C3)c(F)c2F)C1=O (stereo partly specified) | 0.14
4 | O=C(Nc1ccc(Cl)cc1F)N[C@@H]1CCN(c2ccc(N3CCC(CO)C3)c(F)c2F)C1=O (stereo partly specified) | 0.74
5 | CN(C)[C@@H]1CCN(c2ccc(N3CC[C@@H](NC(=O)Nc4ccc(C(F)(F)F)cc4F)C3=O)c(F)c2F)C1 | 0.1
6 | CC(C)(O)C1CCCN1c1cc(F)c(N2CCC(NC(=O)Nc3ccc(Cl)cc3F)C2=O)c(F)c1 (stereo unspecified) | 0.51
